Reference: US11230543B2, “Biaryl monobactam compounds and methods of use thereof for the treatment of bacterial infections” (priority 2015, dated 2022)
Structures can show the parent of a compound that is named as a salt.

Tests used:
[1] = tested on: Klebsiella pneumoniae expressing KPC-1 (CL6569); assay: Antibiotic activity: growth inhibitory concentration (OD600), Klebsiella pneumoniae CL6569; assay type: cell-based; details: lowest concentration inhibiting 95% of bacterial growth; in the presence of β lactamase inhibitor Relebactam 4 μg/mL; 35±2° C. for 22 hours; tested range 100 μM to 0.098 μM
Procedure, shortened: (§1)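 Clinical strains at ~2×10^5 CFU/mL in cation-adjusted Mueller-Hinton II broth, with relebactam at 4 μg/mL final; compounds 100 μM to 0.098 μM final. After 22 hours at 35±2° C, OD600 read; MITC95 is lowest concentration giving 95% growth inhibition.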

[2] = tested on: Pseudomonas aeruginosa expressing AmpC (CL5701); assay: Antibiotic activity: growth inhibitory concentration (OD600), Pseudomonas aeruginosa CL5701; assay type: cell-based; details: lowest concentration inhibiting 95% of bacterial growth; in the presence of β lactamase inhibitor Relebactam 4 μg/mL; 35±2° C. for 22 hours; tested range 100 μM to 0.098 μM
Procedure, shortened: as §1

For C[n+]1ccc(-c2ccc(OC[C@H](O/N=C(\C(=O)N[C@@H]3C(=O)N(OS(=O)(=O)[O-])C3(C)C)c3csc(N)n3)C(=O)O)cc2)cc1NCC1CNC1 [Example 65, (S)-3-((Z)-2-(2-aminothiazol-4-yl)-2-(((S)-2-(4-(2-((azetidin-3-ylmethyl)amino)-1-methylpyridin-1-ium-4-yl)phenoxy)-1-carboxy-ethoxy)imino)acetamido)-2,2-dimethyl-4-oxoazetidin-1-yl sulfate], the “KP_CL6569 MITC95” value [1] was 0.3906 µM and the “PA_CL5701 MITC95” value [2] was 12.5 µM.

In the case of CCOC(=O)[C@H](COc1ccc(-c2cn(CCCN)[n+](C)c2)cc1)O/N=C(\C(=O)N[C@@H]1C(=O)N(OS(=O)(=O)[O-])C1(C)C)c1csc(N)n1 [Example 115, (S)-3-((Z)-2-((((S)-3-(4-(1-(3-aminopropyl)-2-methyl-1H-pyrazol-2-ium-4-yl)phenoxy)-1-ethoxy-1-oxopropan-2-yl)oxy)imino)-2-(2-aminothiazol-4-yl)acetamido)-2,2-dimethyl-4-oxoazetidin-1-yl sulfate], the “KP_CL6569 MITC95” value [1] is reported as 12.5 µM and the “PA_CL5701 MITC95” value [2] is reported as 100 µM.

In the case of CC1(C)[C@H](NC(=O)/C(=N\O[C@@H](COc2ccc(-c3cc(CN)n(CCCN)n3)cc2)C(=O)O)c2csc(N)n2)C(=O)N1OS(=O)(=O)O [Example 126, (S)-3-(4-(5-(Aminomethyl)-1-(3-aminopropyl)-1H-pyrazol-3-yl)phenoxy)-2-((((Z)-1-(2-aminothiazol-4-yl)-2-(((S)-2,2-dimethyl-4-oxo-1-(sulfooxy)azetidin-3-yl)amino)-2-oxoethylidene)amino)oxy)propanoic acid], the “KP_CL6569 MITC95” value [1] is reported as 0.39 µM and the “PA_CL5701 MITC95” value [2] is reported as 3.125 µM.

CC1(C)[C@H](NC(=O)/C(=N\O[C@@H](COc2ccc(-c3cn(C[C@@H](O)CN)[n+](CC4CNC4)c3)cc2)C(=O)O)c2csc(N)n2)C(=O)N1OS(=O)(=O)[O-] [Example 52, (S)-3-((Z)-2-(((S)-2-(4-(1-((S)-3-Amino-2-hydroxypropyl)-2-(azetidin-3-ylmethyl)-1H-pyrazol-2-ium-4-yl)phenoxy)-1-carboxyethoxy)imino)-2-(2-aminothiazol-4-yl)acetamido)-2,2-dimethyl-4-oxoazetidin-1-yl sulfate] was tested, and the “KP_CL6569 MITC95” value [1] was 0.1953 µM and the “PA_CL5701 MITC95” value [2] was 1.563 µM.

CC1(C)[C@H](NC(=O)/C(=N\OCCOc2ccc(-n3cc[n+](CCCN)c3)nc2)c2csc(N)n2)C(=O)N1OS(=O)(=O)[O-] [Example 35, (S,Z)-3-(2-((2-((6-(3-(3-aminopropyl)-1H-imidazol-3-ium-1-yl)pyridin-3-yl)oxy)ethoxy)imino)-2-(2-aminothiazol-4-yl)acetamido)-2,2-dimethyl-4-oxoazetidin-1-yl sulfate 2,2,2-trifluoroacetate] was tested, and the “KP_CL6569 MITC95” value [1] was 1.281 µM and the “PA_CL5701 MITC95” value [2] was 50 µM.

For Cn1c(-c2ccc(OC[C@](C)(O/N=C(\C(=O)N[C@@H]3C(=O)N(OS(=O)(=O)O)C3(C)C)c3csc(N)n3)C(=O)O)cc2)cn(CCCN)c1=N [Example 107, (S)-3-((Z)-2-((((S)-1-(4-(1-(3-aminopropyl)-2-imino-3-methyl-2,3-dihydro-1H-imidazol-4-yl)phenoxy)-2-carboxypropan-2-yl)oxy)imino)-2-(2-aminothiazol-4-yl)acetamido)-2,2-dimethyl-4-oxoazetidin-1-yl sulfate], the “KP_CL6569 MITC95” value [1] was 6.25 µM and the “PA_CL5701 MITC95” value [2] was 50 µM.

With Cc1cc(-c2ccc(OC[C@H](O/N=C(\C(=O)N[C@@H]3C(=O)N(OS(=O)(=O)O)C3(C)C)c3csc(N)n3)C(=O)O)cc2)n(CCCN)[n+]1C.O=C([O-])C(F)(F)F [Example 21, 1-(3-aminopropyl)-5-(4-((S)-2-((((Z)-1-(2-aminothiazol-4-yl)-2-(((S)-2,2-dimethyl-4-oxo-1-(sulfooxy)azetidin-3-yl)amino)-2-oxo-ethylidene)amino)oxy)-2-carboxyethoxy)phenyl)-2,3-dimethyl-1H-pyrazol-2-ium 2,2,2-trifluoroacetate] the “KP_CL6569 MITC95” value [1] was 0.3906 µM and the “PA_CL5701 MITC95” value [2] was 12.5 µM.
